Reference: publication PMC12119672, “Development and evaluation of [^11C]DPA-813 and [^18F]DPA-814: novel TSPO PET tracers insensitive to human single nucleotide polymorphism rs6971” (European Journal of Nuclear Medicine and Molecular Imaging, 2025)
Several values for one entry are separate records, joined by “and”; a condition that tells them apart may be missing. Identical values can stand only once.

Columns and labels:
rat TSPO = biological target: T1, rat TSPO (Rattus norvegicus, UniProt P16257); assay: Competitive binding to rat TSPO vs [3H]PK 11195 (Eurofins assay #226700, rat heart membranes); details: vs DPA-713 / DPA-714
T1 construct: Heart of male Wistar derived rats weighing 175 ± 25 g are used to prepare peripheral benzodiazepine membrane receptors [TSPO]; tissue Eurofins Panlabs Discovery Services assay #226700; host or cells: rat heart (male Wistar derived)
Procedure: Binding affinities (Ki) to wild-type (WT) and A147T human TSPO were assessed using a previously published method. HEK-293T cells were stably transfected with WT and A147T TSPO. Membranes were isolated from each cell line using an Ultra-Turrax hand-held homogeniser. These cells have been previously validated as an in vitro model for low- and high-affinity TSPO binding. […] Non-specific binding was determined using a saturating concentration (1 µM) of non-tritiated PK 11195. This non-specific binding contributed less than 10% of total binding. Reactions were halted by filtering through a 96-well glass-fibre filter plate (Millipore), followed by eight washes with ice-cold 50 mM Tris HCl. Microscint 0 was added to the plate and resultant radioactivity-related photons were collected by a Microbeta 2450 (PerkinElmer). Ki values were fit to a competition binding curve fit on non-specific binding-corrected data using GraphPad Prism 10.0 (GraphPad). Results are presented as mean ± standard error of the mean (SEM) from at least three independent experiments. Binding affinities (Ki) to rat TSPO were measured in duplicate by Eurofins Panlabs Discovery Services (assay #226700) (Supplementary Fig. 12). Single-dose (10 µM) off-target in vitro screening was performed in duplicate by Eurofins Panlabs Discovery Services (Supplementary Table 5).
Supplementary Figure 12 Dose-response curves and binding affinities of DPA-813 and DPA-814 showing competitive binding to rat TSPO vs [^3H]PK 11195. Method from Eurofins: Heart of male Wistar derived rats weighing 175 ± 25 g are used to prepare peripheral benzodiazepine membrane receptors [TSPO] in modified Tris-HCl buffer pH 7.5. A 0.25 mg aliquot is incubated with 0.3 nM [^3H]PK 11195 for 15 minutes at 25 °C. Non-specific binding is estimated in the presence of 100 μM Dipyridamole. Membranes are filtered and washed, the filters are then counted to determine [^3H]PK 11195 specifically bound.

[1] = Ex vivo metabolite analysis (plasma and brain) in wild-type rats; set-up: species or system rat; details: i.v.
Procedure: Metabolite analysis was conducted following the method outlined in a previous study. Wistar/RccHan (WIST) rats (Inotiv, the Netherlands) received intravenous injections of either [^11C]DPA-813 (30–50 MBq) or [^18F]DPA-814 (20–30 MBq). Rats were euthanized at 5, 15, and 45 min post-injection (n = 4 per time point). Plasma was separated from blood then processed through a C18 Sep-Pak (Waters, Milford, MA, USA). After washing with 3 mL of water to isolate the polar fraction, the non-polar fraction was eluted using 2 mL of methanol and 1 mL of water and subsequently analyzed by HPLC. The brain tissue was collected and homogenized in a mixture of MeCN and H2O (50/50, 4 mL) before centrifugation (5 min, 4000 rpm, 20 °C, Hettich Universal 32). The obtained supernatant was separated from the precipitate and analyzed via HPLC. Analytical HPLC was performed using a Dionex UltiMate 3000 HPLC system equipped with Chromeleon software (version 6.8), utilizing a Gemini C18 5-µm (10 × 250 mm) column (Phenomenex, Torrance, CA, USA). All fractions were assessed for radioactivity using a Wizard Gamma counter 1470 or 2480 (Wallac/PerkinElmer, Waltham, MA, USA).

[2] = test system: EAE rat model (spinal cord); assay: PET imaging in the EAE rat model; format: in vivo
TSPO in human MS tissues = assay: Autoradiography on genotyped human MS brain tissue (HAB, MAB, LAB); format: binding
Source text: Brain tissues from MS patients (n = 7) were used in this study and were obtained from the MS centre of the Amsterdam University Medical Centers (AUMC). For some patient material, several brain tissues were available. The MS centre received permission from the Ethical Committee of the AUMC (Amsterdam, The Netherlands) to perform autopsies for tissue use and access to medical records for research purposes. All patients and controls, or their next of kin, had given informed consent for autopsy and use of brain tissue for research purposes.
TSPO rs6971 SNP was determined with a Taqman assay (C_2512465_20, ThermoFisher Scientific, The Netherlands). DNA was isolated from human MS brain tissue cryosections using a QIAmp mini kit from Qiagen according to the manufacturer’s recommendation. The concentration of the isolated DNA was determined on a nanodrop (NanoVue Plus, Biochrom). DNA concentration ranged from 45 to 246 µg/mL. QPCR was performed on a QuantStudio (Applied Biosystems, The Netherlands). Synthetic DNA (300 bp) for the two TSPO SNP alleles, rs6971-A, and rs6971-G, was used as a control for the Taqman assay. DNA samples were diluted 1/100 in milliQ water, and 4.5 µL was used for the QPCR. Control DNA sequences were reconstituted in 10 ng/mL in milliQ water. The final QPCR solution contained 5 µL TaqPath proAmp master mix (ThermoFisher Scientific, The Netherlands), 0.5 µL Taqman SNP, and 4.5 µL DNA. Results of the Taqman assay are summarised in Supplementary Tables 4 and Supplementary Fig. 2.
Human MS tissue cryosections (20 μm) were mounted on glass slides, air-dried, and stored at − 80 °C until needed. Prior to use, the sections were washed three times in PBS for 5 min each, then dried under an airflow. […] For blocking experiments, tissue sections were co-incubated with PK 11195 (10 µM) and the tracer. After incubation, sections were washed for 90 s three times each in ice-cold PBS and then dipped in deionized water twice. The sections were air-dried and exposed to a phosphor screen BAS-IP SR 2025 (General Electric, Eindhoven, The Netherlands). Phosphor screens were subsequently imaged using a Typhoon FLA 7000 imager (General Electric, Eindhoven, The Netherlands), and signal intensity was quantified using ImageLab software (BioRad, Lunteren, The Netherlands).

[3] = Ex vivo biodistribution in wild-type rats; set-up: species or system rat; details: i.v.
Procedure: Wistar/RccHan (WIST) rats from Inotiv, the Netherlands, received intravenous injections via a tail vein catheter of either [^11C]DPA-813 (30–50 MBq) or [^18F]DPA-814 (20–30 MBq). The rats were euthanized at 5, 15, and 45 min post-injection (n = 4 per time point). Blood, heart, lungs, liver, spleen, kidney, urine, bone, brain, duodenum, small intestine, skin, and muscle were collected, weighed, and their radioactivity measured using a Wizard Gamma counter 1470 or 2480 (Wallac/PerkinElmer, Waltham, MA, USA). Entire organs were collected, except for larger organs like the liver and lungs, where only a portion was dissected. The radioactivity uptake in each organ was expressed as the percentage of the injected dose per gram of tissue (%ID/g).

- higher affinity to rat TSPO compared to the parent compound (rat TSPO): 24 fold
- Brain, Parent (intact tracer) ([1]; 5 min post-injection): 99.7 ± 0.1%
- Plasma, Parent (Intact tracer) ([1]; 5 min post-injection): 87.9 ± 2.4%
- Brain, Parent (intact tracer) ([1]; 15 min post-injection): 99.6 ± 0.3%
- Plasma, Parent (Intact tracer) ([1]; 15 min post-injection): 85.5 ± 3.2%
- Brain, Parent (intact tracer) ([1]; 45 min post-injection): 98.9 ± 0.9%
- Plasma, Parent (Intact tracer) ([1]; 45 min post-injection): 67.2 ± 2.9% and 67%
- ratio of the binding quantification [11C]DPA-813/[11C]DPA-713 (TSPO in human MS tissues; HAB human MS tissue): 1 ± 0.2
- ratio of the binding quantification [11C]DPA-813/[11C]DPA-713 (TSPO in human MS tissues; LAB human MS tissue): 3
- ratio of the binding quantification [11C]DPA-813/[11C]DPA-713 (TSPO in human MS tissues; MAB human MS tissue): 1.6 ± 0.1
- Biodistribution, Blood ([3]; 5 min post-injection): 0.31 ± 0.1 %ID/g
- Biodistribution, Bone ([3]; 5 min post-injection): 0.28±0.1 %ID/g
- Biodistribution, Brain ([3]; 5 min post-injection): 0.41 ± 0.1 %ID/g
- Biodistribution, Duodenum ([3]; 5 min post-injection): 1.44±0.2 %ID/g
- Biodistribution, Heart ([3]; 5 min post-injection): 3.70±0.5 %ID/g
- Biodistribution, Kidney ([3]; 5 min post-injection): 3.80±0.5 %ID/g
- Biodistribution, Liver ([3]; 5 min post-injection): 1.42±0.4 %ID/g
- Biodistribution, Lungs ([3]; 5 min post-injection): 29.84±3. %ID/g
- Biodistribution, Skin ([3]; 5 min post-injection): 0.09±0.1 %ID/g
- Biodistribution, Small intestine ([3]; 5 min post-injection): 1.04±0.4 %ID/g
- Biodistribution, Tail ([3]; 5 min post-injection): 1.30±0.6 %ID/g
- Biodistribution, Urine ([3]; 5 min post-injection): 0.03±0.0 %ID/g
- Biodistribution, muscle ([3]; 5 min post-injection): 0.07±0.0 %ID/g
- Biodistribution, spleen ([3]; 5 min post-injection): 4.62±0.6 %ID/g
- Biodistribution, Blood ([3]; 15 min post-injection): 0.34±0.1 %ID/g
- Biodistribution, Bone ([3]; 15 min post-injection): 0.35±0.1 %ID/g
- Biodistribution, Brain ([3]; 15 min post-injection): 0.39±0.0 %ID/g
- Biodistribution, Duodenum ([3]; 15 min post-injection): 1.37±0.1 %ID/g
- Biodistribution, Heart ([3]; 15 min post-injection): 4.57±0.2 %ID/g
- Biodistribution, Kidney ([3]; 15 min post-injection): 4.31±0.5 %ID/g
- Biodistribution, Liver ([3]; 15 min post-injection): 1.69 ± 0.2 %ID/g
- Biodistribution, Lungs ([3]; 15 min post-injection): 24.03±7. %ID/g
- Biodistribution, Skin ([3]; 15 min post-injection): 0.10±0.0 %ID/g
- Biodistribution, Small intestine ([3]; 15 min post-injection): 0.77±0.3 %ID/g
- Biodistribution, Tail ([3]; 15 min post-injection): 1.18±0.1 %ID/g
- Biodistribution, Urine ([3]; 15 min post-injection): 0.02±0.0 %ID/g
- Biodistribution, muscle ([3]; 15 min post-injection): 0.10±0.0 %ID/g
- Biodistribution, spleen ([3]; 15 min post-injection): 5.88±1.8 %ID/g
- Biodistribution, Blood ([3]; 45 min post-injection): 0.27 ± 0.01 %ID/g
- Biodistribution, Bone ([3]; 45 min post-injection): 0.26±0.1 %ID/g
- Biodistribution, Brain ([3]; 45 min post-injection): 0.34 ± 0.1 %ID/g
- Biodistribution, Duodenum ([3]; 45 min post-injection): 1.51±0.1 %ID/g
- Biodistribution, Heart ([3]; 45 min post-injection): 4.28±0.3 %ID/g
- Biodistribution, Kidney ([3]; 45 min post-injection): 4.20±0.6 %ID/g
- Biodistribution, Liver ([3]; 45 min post-injection): 1.68±0.3 %ID/g
- Biodistribution, Lungs ([3]; 45 min post-injection): 16.13±3.5 %ID/g
- Biodistribution, Skin ([3]; 45 min post-injection): 0.12±0.04 %ID/g
- Biodistribution, Small intestine ([3]; 45 min post-injection): 1.18±0.2 %ID/g
- Biodistribution, Tail ([3]; 45 min post-injection): 1.33±0.7 %ID/g
- Biodistribution, Urine ([3]; 45 min post-injection): 0.23±0.3 %ID/g
- Biodistribution, muscle ([3]; 45 min post-injection): 0.12±0.03 %ID/g
- Biodistribution, spleen ([3]; 45 min post-injection): 6.66±1.2 %ID/g
SMILES: Cc1cc(C)n2nc(-c3ccc(O[11CH3])cc3)c(CC(=O)N(C)c3ccccc3)c2n1 [[^11C]DPA-813]
- higher difference EAE vs control compared with the fluorinated compound ([2]; [11C]DPA-813 vs [18F]DPA-814, [11C]DPA-713 vs [18F]DPA-714): 3 folds
- higher uptake (AUC of time activity curve) in the spinal cord of EAE rats compared to CFA control ([2]; dynamic PET 60 min, peak of clinical symptoms): 64%
